In patent US7511123B2, “Immuno-interactive fragments of the alpha-C subunit of inhibin” (Prince Henry's Institute of Medical Research, priority 1999, dated 2009):

Experiments:
As #128 [1] = experiment: RIA (Assay 2): competition with iodinated inhibin for As #128; format: binding, sheep; conditions: for As#128 ED50: biotinylated peptides, 50% fall in binding of iodinated inhibin; for ED50 values As#128: non-biotinylated peptides, hr-inhibin A as standard
Excerpt: (§1) This assay was used to determine which peptides compete with iodinated 30 kDa inhibin for As #41, #128 and #1989 (used in the original inhibin RIA, Lapphorn et al., 1989, supra) in a RIA format. This assay identifies those peptides that bind to inhibin-binding antibodies in the antiserum and provides a stricter affinity and specificity assessment in identifying the appropriate epitopes than that found with Assay 1. The competition between peptide and hr-inhibin (used as the standard) was assessed from their ED50 values. The RIA consisted of the competition of iodinated inhibin and either hr-inhibin reference preparation, individual peptides or pools from the 4 peptide regions, with As #41, #128 and in some instances, As #1989. The peptides/inhibin/iodinated inhibin and antisera (at a prescribed dilution) were incubated overnight at 4° C. using standard methodologies. The antibody-bound iodinated inhibin was immunoprecipitated with the addition of an anti-sheep IgG serum raised in goats and the radioactivity was measured in a gamma counter. The concentration of peptide that gives a 50% fall in binding of iodinated inhibin (ED50) was determined and this value was used to give a measure of the affinity of the peptide for the antiserum. This methodology consisted of determining the ED50 of the peptide in the RIA using iodinated human recombinant inhibin as tracer with either As #41, As #128 or As #1989 and graded doses of either hr-inhibin or peptide as described in Example 2.

As#128 and/or As#41 = experiment: Inhibin IFMA with pre-immunoabsorption of antisera by peptides; format: binding, sheep
Excerpt: This IFMA is used in the measurement of inhibin in serum from women with ovarian cancer and is presented at this juncture as a reference to the following procedures. The IFMA is a sandwich antibody assay in 96-well microtiter plates. The capture antiserum is As #128 and the labeled antiserum As #41, both raised in sheep to the alpha subunit of human inhibin. Sheep As #128 was also boosted with human recombinant 30-kDa inhibin. The microtiter plates were coated with a caprylic acid IgG cut of antiserum #128. Inhibin standard and serum samples were added and incubated for 2 hours at room temperature. A biotinylated antiserum (As #41) which has been immunopurified by absorption to a column of bovine (alpha)C subunit fusion protein (as previously described, Robertson et al., 1997, supra) followed by elution with a glycine (pH 2.5) buffer, was added to bind to the antibody-bound inhibin (2-hour incubation at room temperature). Fluorescently (Eu) labeled-streptavidin that has a high affinity for biotin is added (30 minutes at room temperature) and the Eu-bound streptavidin is counted in a time-resolved fluorimeter. The Eu measured is proportional to the inhibin bound by the two antisera.
As another approach, the competition of combinations of peptides at a maximum saturating dose was assessed in the IFMA (FIGS. 7-9). […] This suppression in binding provides a measure of the contribution of that particular epitope to the assay.

As #41 [2] = experiment: RIA (Assay 2): competition with iodinated inhibin for As #41; format: binding, sheep; conditions: for As#41 ED50: biotinylated peptides, 50% fall in binding of iodinated inhibin; for ED50 values As#41: non-biotinylated peptides, hr-inhibin A as standard
Excerpt: as §1

As #41 [3] = experiment: Two-site assay design variation: biotinylated #41 pre-incubated with peptide; format: binding, sheep; conditions: non-biotinylated peptides 0.1-1.0 micromolar
Description: (iv) In a variation to the above design, biotinylated #41 was pre-incubated with peptide (0.1-1.0 micromolar) for 1.5 hours at room temperature and then added to the As #128 coated plate pre-bound with inhibin as for (i)-(iii). […] Combination of peptide #5 and #30 led to 74% decrease.

As #128 [4] = experiment: Two-site assay design: peptides pre-incubated with As #128 coated plate; format: binding, sheep; conditions: non-biotinylated peptides 0.1-1 micromolar
Description: On the other hand, the IFMA design is based on the total amount of inhibin bound which is a combination of both antibody affinity and concentration. In order to establish to what extent epitopes to these peptides contribute to the overall IFMA, the following two-site assay designs were used.
(i) Peptides #5, #20 and #30 (0, 0.1-1 micromolar) were incubated with the As #128 coated plate for 1.5 hours at RT and the wells washed. The highest dose of peptide used was saturating.
(ii) Hr-Inhibin was then added as a saturating or near saturating dose to the As #128 coated plate and incubated for 2 hours at room temperature and the plate washed.
(iii) Biotinylated As #41 was added to the above wells and incubated for 2 hours at RT. Plates were then washed and counted.

As #1989 = experiment: RIA (Assay 2): competition with iodinated inhibin for As #1989; format: binding, rabbit; conditions: for As#1989 ED50: 50% fall in binding of iodinated inhibin; for ED50 values As#1989: non-biotinylated peptides, hr-inhibin A as standard
Excerpt: as §1

As #41 [5] = experiment: Competitive 2-site assay (Assay 3), approach (b); format: binding, sheep; conditions: biotinylated peptide pools or peptides incubated with iodinated As #41
Excerpt: (§2) This assay was developed to establish the relative importance of the individual peptides and peptide pools (identified as epitopes in Assays 1 and 2) in the sandwich antibody format used in the IFMA with As #128 as capture antibody and As #41 as detection antibody. Two approaches (a and b) were considered, Approach (a) explores the cross-reaction of peptides with inhibin for the immobilized As #128 while Approach (b) assesses their cross-reaction with inhibin for As #41.
Approach (b). In this approach, the competition of peptides with the As #41 antiserum using the sandwich antibody format was assessed. Hr-Inhibin was initially incubated with the As #128 coated wells for 1 hour at room temperature. The biotinylated peptide pools and/or individual peptides were incubated together with iodinated As #41 for 1 hour and then added to the inhibin bound As #128 coated plates and incubated for 2 hours at room temperature. Plates were then washed to remove any unbound material and the resulting activity was measured in the gamma counter.

As #128 [6] = experiment: Solid phase assay (Assay 1): biotinylated peptides binding to As #128; set-up: species or system sheep; key: +++++ major contribution; + minor contribution; conditions: relative contribution
Description: (§3) This assay is a broad screen of the binding of the 31 biotinylated peptides to As #41 and #128 as recommended by Chiron Mimotopes.
(§4) The biotinylated peptides were initially bound to streptavidin-coated 96-well plates (2 hours at room temperature), antiserum #41 or #128 was then added (2 hours room temperature) to bind to the peptides. Detection of antiserum binding was assessed by a further incubation with an anti-ovine IgG serum labeled with the enzyme, horseradish peroxidase. The enzyme activity was assessed by conversion of a colorless substrate to a colored product that is detected in a spectrophotometer. The enzyme activity measured was proportional to the extent of the binding of the peptides.

PO-6 = experiment: Solid phase binding of Set 2 peptides to PO-6; set-up: species or system mouse; key: +++; ΦΦΦ strong effect; +, Φ weak effect; conditions: Set 2 biotinylated peptides 24 micromoles/L
Description: (§5) The binding of the 41 biotinylated peptides as set forth in Table 7 (peptide set 2) to the mouse monoclonal antibodies (PO# series) was assessed as follows:
(§6) a) Assay 1 (solid phase assay). The assay was undertaken as outlined in assay 1 of Example 2. Biotinylated peptides (24 micromoles/L) were initially bound to streptavidin-coated plates. Mab (at an appropriate dilution to give a detectable response, 1:1000, 1:10000 dilution of the culture medium) was then added and incubated for 1.5 hr. The amount of bound Mab was determined using horseradish peroxidase-bound anti-mouse IgG serum and enzyme activity detected at 450-630 nm using an ELISA plate reader.

As #128 [7] = experiment: Competitive 2-site assay (Assay 3), approach (a); format: binding, sheep; set-up: key: +++++ major contribution; + minor contribution; conditions: relative contribution
Excerpt: as §2
Approach (a). The biotinylated peptide pools and/or individual peptides at various concentrations, in combination with a fixed concentration of hr-inhibin, were incubated for 2 hours with As #128-coated plates. The plates were then washed to remove any unbound material. Iodinated As #41 was then added to bind to the bound hr-inhibin, the plates washed and the bound radioactivity was measured in a gamma counter. The counts measured were proportional to the amount of hr-inhibin bound to both antisera. The possibility that a peptide contained two epitopes capable of linking As #128 and #41 was assessed in the absence of added hr-inhibin.

R1 [8] = experiment: Solid phase binding of Set 2 peptides to R1; set-up: species or system mouse; key: +++; ΦΦΦ strong effect; +, Φ weak effect; conditions: Set 2 biotinylated peptides 24 micromoles/L
Description: as §5, §6

PO-22 [9] = experiment: RIA of Set 2 peptides with PO-22; format: binding, mouse; set-up: key: ΦΦΦ strong effect; +, Φ weak effect; a) limited binding; conditions: Set 2 biotinylated peptides 0.8 and 0.08 micromoles/L
Description: (§7) The binding of the 41 biotinylated peptides as set forth in Table 7 (peptide set 2) to the mouse monoclonal antibodies (PO# series) was assessed as follows: b) Assay 2 (radioimrnunoassay, RIA) using iodinated human inhibin A as tracer. Mabs (at an appropriate dilution, see above) were incubated with iodinated human recombinant inhibin in the presence of biotinylated peptides (0.8 and 0.08 micromoles/L final concentration) overnight at room temperature.

PO-22 [10] = experiment: Solid phase binding of Set 2 peptides to PO-22; set-up: species or system mouse; key: +++; ΦΦΦ strong effect; +, Φ weak effect; conditions: Set 2 biotinylated peptides 24 micromoles/L
Description: as §5, §6

PO-12 [11] = experiment: Solid phase binding of Set 2 peptides to PO-12; set-up: species or system mouse; key: +++; ΦΦΦ strong effect; +, Φ weak effect; conditions: Set 2 biotinylated peptides 24 micromoles/L
Description: as §5, §6

PO-12 [12] = experiment: RIA of Set 2 peptides with PO-12; format: binding, mouse; set-up: key: ΦΦΦ strong effect; +, Φ weak effect; a) limited binding; conditions: Set 2 biotinylated peptides 0.8 and 0.08 micromoles/L
Description: as §7

PO-14 [13] = experiment: Solid phase binding of Set 2 peptides to PO-14; set-up: species or system mouse; key: +++; ΦΦΦ strong effect; +, Φ weak effect; conditions: Set 2 biotinylated peptides 24 micromoles/L
Description: as §5, §6

PO-14 [14] = experiment: RIA of Set 2 peptides with PO-14; format: binding, mouse; conditions: Set 2 biotinylated peptides 0.8 and 0.08 micromoles/L
Description: as §7

As #41 [15] = experiment: Solid phase assay (Assay 1): biotinylated peptides binding to As #41; set-up: species or system sheep; key: +++++ major contribution; + minor contribution; conditions: relative contribution
Description: as §3, §4

R1 [16] = experiment: RIA of Set 2 peptides with R1; format: binding, mouse; set-up: key: ΦΦΦ strong effect; +, Φ weak effect; a) limited binding; conditions: Set 2 biotinylated peptides 0.8 and 0.08 micromoles/L
Description: as §7

Row | suppression in binding with As #128 (As #128 [4]) | #128 Antibody screen Assay 1 (As #128 [6]) | PO-6 SPB (PO-6) | R1 SPB (R1 [8]) | PO-22 SPB (PO-22 [10]) | Substance | As#128 ED50 (As #128 [1]) | ED50 values As#128 (As #128 [1]) | As#41 ED50 (As #41 [2]) | ED50 values As#41 (As #41 [2]) | inhibition with biotinylated #41 pre-incubated with peptide (As #41 [3]) | As#1989 ED50 (As #1989; biotinylated peptides) | ED50 values As#1989 (As #1989) | #128 2-site competitive assay Assay 3 (As #128 [7]) | PO-22 RIA (PO-22 [9]) | other results
1 | no suppression at all |  |  |  |  | SGSG RTTSDGGYSFKYET [Peptide 30] | 600 nM | >5000 nM | 2500 nM | >5000 nM | 25-30% | <10 nM | 2500 nM |  |  | % suppression at 2ng inhibin (As#128 and/or As#41; As#41 label pre-absorbed with peptide, As#128 coating antibody: buffer): 28%; ED50 with As #1989 (As #1989; biotinylated peptides): < 10 nM; affinity to rabbit antiserum #1989 (As #1989; in words): high affinity; blocking of As #41 binding to the inhibin-As#128 complex (As #41 [5]): 50%
2 |  | + | +++ | + | +++ | SGSG MSWPWSPSALRLLQ [Peptide 4] | 3800 nM |  | 1300 nM |  |  | >2500 nM |  | + | ΦΦΦ | 
3 | 23% | + |  |  |  | SGSG PNLSLPVPGAPPTP [Peptide 20] | 20 nM | 150 nM | 3600 nM | >5000 nM | no inhibition | >2500 nM | >5000 nM | + |  | % suppression at 2ng inhibin (As#128 and/or As#41; As#128 coating antibody pre-absorbed with peptide(s), As#41 label: buffer): 13%
4 |  |  |  |  |  | SGSG TPAQPYSLLPGAQP [Peptide 23] | 500 nM |  | 6200 nM |  |  | >2500 nM |  |  |  | PO-12 SPB (PO-12 [11]): +++; PO-12 RIA (PO-12 [12]): ΦΦΦ; PO-14 SPB (PO-14 [13]): +++; PO-14 RIA (PO-14 [14]): ΦΦ
5 |  |  |  |  |  | SGSG GTMRPLHVRTTSDG [Peptide 28] | 625 nM |  | 4000 nM |  |  | >2500 nM |  |  |  | #41 Antibody screen Assay 1 (As #41 [15]): +
6 |  |  | +++ | +++ | +++ | SGSG STPLMSWPWSPSAL [Peptide 3] | 38000 nM |  |  |  |  | >2500 nM |  |  | ΦΦΦ | R1 RIA (R1 [16]): ΦΦΦ
